From US20240287054A1, “COMPOUNDS THAT BIND NON-CANONICAL G-QUADRUPLEX STRUCTURES AND METHODS OF MAKING AND USING THE SAME” (The U.S.A., as Represented by the Secretary, Department of …, priority 2021, published 2024)

How the values were obtained:
Type in all cases: binding, human
MYCN G4 DNA [1] = assay: DMS footprinting of 5′Cy5-labeled MYCN G4 DNA
Experimental: DMS footprinting. Footprinting of 5′Cy5-labelled DNA was performed as described in the literature (Zhang et al., JACS 2014, 136:1381-1390; Li et al., PNAS 2015, 112:14581-14586). […] Then, DNA solutions were diluted to 50 nM in corresponding buffers (2 mL final volume in each tube) and compound stock solutions (in DMSO) were added resulting in solutions with designed concentrations (resulting in 5% DMSO). After incubation for 30 min, the folded DNA samples were treated with 0.5% DMS for 10 min at RT and the reaction was stopped by adding 200 μL stop buffer (2.5 M NH4OAc, 0.1 M β-mercaptoethanol, 1 mg/mL calf thymus DNA). After phenol/chloroform/isoamyl alcohol extraction and ethanol precipitation, the DNAs were dissolved in 50 μL of nuclease free water. An equal volume of 10% piperidine was added to each tube, and the mixed solutions were heated at 90° C. for 30 min, followed by quick chilling on ice. The DNAs were again subjected to phenol/chloroform/isoamyl alcohol extraction and ethanol precipitation. The precipitated DNAs were dissolved in 10 μL of nuclease free water, denatured at 95° C. for 5 min, and resolved on a 17% denaturing polyacrylamide gel. After gel running, Cy5-labeled DNA fragments were visualized on a Typhoon Imager (Amersham) and digitized using Image J software.
In this example, DMS-footprinting was conducted by using 5′-Cy5-labeled MYCN hairpin-G4 DNA. […]

MYCN G4 DNA with 10×tRNA = assay: Fluorescence titration of MYCN G4 in presence/absence of excess tRNA; conditions: presence/absence of 10×tRNA
Experimental: (§1) 2-Aminopurine (2-AP) fluorescence titration. Fluorescence titrations based on 2-aminopurine labeling were performed using the protocol reported previously. Briefly, MYCN G4 oligonucleotide with a 2-AP substitution at either A11 or A18 position was annealed by heating the sample to 95° C. for 5 min and cooling down to RT slowly. The oligonucleotide with folded structure was diluted to 10 μM in Tris buffer (10 mM Tris, pH7.0, 100 mM KCl, 0.005% Tween 20) and prepared in a black 96-well plate (Costar) in triplicate as designed. Small molecules were diluted in DMSO to obtain a series of solutions with concentrations ranging from 0.1 to 5 mM, and then diluted by 20 times added into the plate (5% DMSO final concentration). The final concentration of 2-AP DNA was 1 μM in the well plate. To obtain the background fluorescence, small molecule solutions without DNA were also prepared in the same plate. After incubation for 30 min at RT, the plate was briefly centrifuged and scanned in Synergy Mx microplate reader (BioTek) with Ex 310 nm/Em 365 nm. Fluorescence signals were calculated by averaging the intensities in triplicate wells after subtracting the references. Finally, the binding signals were normalized and the KD value was determined by fitting the curve using a nonlinear sigmoidal dose-response model with a variable slope in GraphPad Prism 8.3.1 software.

[2] = target: mutated/truncated MYCN G4 DNA; assay: FIA titration with mutated long loop and truncated (no hairpin) MYCN G4 DNAs
Experimental: (§2) Fluorescence intensity assay. In this disclosure, fluorescence intensity assay (FIA) was used for both validation of hit binding at a single dose and binding affinity determination. For validating hit compounds from SMM screening, 100 μM solution of each compound was prepared in triplicate in a 96 well-plate (Costar, black side clear bottom), resulting in 5% DMSO concentration. 5′Cy5-labeled MYCN G4 DNA was annealed as described above, then added into the well plate resulting in a final concentration of 100 nM. The plate was incubated shaking for 30 min, followed by centrifuging at 500 rpm for 2 minutes. The fluorescence intensity was then measured on a Synergy Mx microplate reader (BioTek) at Ex 649 nm/Em 670 nm. TMPyP4/DMSO were used as positive and negative controls, respectively. In certain examples, compounds were considered binders when a change of >10% change in fluorescence intensity was observed compared to that of negative control (DMSO solution). For binding affinity measurement, small molecule solutions were prepared as serial dilutions in DMSO. Then a final test plate was prepared by adding 5 μL small molecule solutions and 10 μL annealed DNA samples into 85 μL buffer solutions, resulting in the final small molecule concentrations from 0 to 250 μM (5% final DMSO concentration). The fluorescence intensities were normalized, and the binding affinity was calculated by fitting the curve using one-site total model in GraphPad Prism 8.3.1 software. The fluorescence titration using 3′-labeled oligonucleotides was also performed the same way.
To further understand the binding details between compound MY-1 and MYCN G4, a series of FIA studies were designed and performed. […] After incubating 100 μM MY-1 with labeled DNA samples, fluorescence intensities were measured and compared to DMSO controls. Fluorescence of the A11 2-AP DNA sample was quenched by almost 100%, while the quenching percentages were 80% and 70% for A18 and A24 2-AP DNAs, respectively (FIG. 24B, FIGS. 25A-25C). […]

MYCN G4 DNA [3] = assay: Fluorescence intensity assay (FIA) with 5′Cy5-labeled MYCN G4 DNA; conditions: for Kd: 5′Cy5-labeled MYCN G4 titrated with compound; for positive binding in FIA (>10% quenching): single concentration 100 μM compound, 5′Cy5-MYCN G4
Experimental: as §2

[4] = target: MYCN G4 DNA (2-AP at A11); assay: 2-Aminopurine (2-AP) fluorescence titration, A11-labeled MYCN G4; conditions: 2-AP at A11 of MYCN G4
Experimental: as §1

| SMILES | protection of guanines from DMS (MYCN G4 DNA [1]; 5 mM KCl buffer, compound at concentrations according to KD) | effect of excess tRNA on binding affinity (MYCN G4 DNA with 10×tRNA) | Kd ([2]; 5′-Cy5 labeled constructs without hairpin, read-out: binding affinity to mutated long loop and truncated MYCN G4 DNAs) [µM] | fold weaker binding than wild type MYCN G4 ([2]; mutated/truncated vs wild type) [fold] | Kd (MYCN G4 DNA [3]) [µM] | positive binding in FIA (>10% quenching) (MYCN G4 DNA [3]) | Kd [4] [µM] | protection of guanines from DMS (MYCN G4 DNA [1]; 10 mM LiCl + 10 mM NaCl Tris buffer, 0-100 nM compound) | A11 2AP KD [4] | binding affinity to mutated long loop and truncated MYCN G4 DNAs ([2]; 5′-Cy5 labeled constructs without hairpin) |
| --- | --- | --- | --- | --- | --- | --- | --- | --- | --- | --- |
| COc1ccc(-c2noc(-c3ccc(NCCCN4CCCC4)nn3)n2)cc1 [MY-1, 6-(3-(4-methoxyphenyl)-1,2,4-oxadiazol-5-yl)-N-(3-(pyrrolidin-1-yl)propyl)pyridazin-3-amine] | G8, G9, G16, G17 were protected considerably, while G13-G15 were slightly protected | no effect | > 100 | ~30 | 3.5 ± 1.6 | hits | 3.2 ± 0.6 |  |  |  |
| COc1ccc(-c2noc(-c3ccc(NCCCNc4c5ccc(Cl)cc5nc5ccc(OC)cc45)nn3)n2)cc1 [B33, N^1-(6-chloro-2-methoxyacridin-9-yl)-N^3-(6-(3-(4-methoxyphenyl)-1,2,4-oxadiazol-5-yl)pyridazin-3-yl)propane-1,3-diamine] |  |  |  |  |  |  |  | protection of G2-9, G10-12, and G17-21 |  |  |
| COc1ccc(-c2noc(-c3ccc(NCCCN4CCCCCC4)nn3)n2)cc1 [MY-8, N-(3-(azepan-1-yl)propyl)-6-(3-(4-methoxyphenyl)-1,2,4-oxadiazol-5-yl)pyridazin-3-amine] |  |  |  |  |  |  | 0.6 ± 0.2 |  | sub-micromolar binders |  |
| CCCN1CCN(c2nnc(-n3cccc3CNCCCN3CCCCCC3)s2)CC1 [Compound 1] |  | no effect |  |  | 20.8 ± 2.2 | hits |  |  |  | comparable to wild type |
